Assay results from PMC9197168, “Structural Characterization of Mycobacterium abscessus Phosphopantetheine Adenylyl Transferase Ligand Interactions: Implications for Fragment-Based Drug Design” (Frontiers in Molecular Biosciences, 2022).
Read-outs that look alike come from different tables or passages of the source.

Experiments:
[1] = biological target: Mab PPAT (Mycobacteroides abscessus, UniProt B1MDL6); test: Isothermal titration calorimetry (ITC) on Mab PPAT; assay type: binding, Mycobacterium abscessus; conditions: for Kd: ITC
Method: ITC experiments were done using an ITC200 (MicroCal) instrument. The Mab PPAT protein for ITC was dialysed overnight at 4°C in storage buffer (50 mM Tris-HCl pH 8.0, 150 mM NaCl) the same buffer was used for preparing the ligand solutions. The protein and ligands/fragments were used at a concentration of 72 μM and 1–5 mM, respectively. ITC recorded for ATP was done in buffer: 50 mM Hepes pH 8.0, 150 mM NaCl, 5 mM MgCl2, at Mab PPAT concentration of 200 uM and 3 mM ATP. Buffer components and other constituents like DMSO were kept constant in both protein and ligand solutions. Ligands to buffer titrations were subtracted in all cases and experiments were repeated at least twice. Data were analysed using the Origin software (OriginLab, Northampton, MA, United States).

[2] = biological target: Mtb PPAT; parameters: method as in El Bakali et al., 2020; conditions: ref El Bakali et al., 2020; cited from earlier work
[3] = tested on: M. abscessus ATCC19977 whole-cell cultures; test: Whole-cell luciferase-reporter based luminescence assay; parameters: species or system Mycobacterium abscessus; conditions: up to a concentration of 200 µM; in comparison to positive control Amikacin; data not shown
[4] = biological target: M. abscessus PPAT (Mycobacteroides abscessus, UniProt B1MDL6); assay type: binding, Mycobacterium abscessus; conditions: Table 1; 10 μM PPAT, 5 mM compound, 5% DMSO
[5] = Mab PPAT 72 μM, 50 mM Tris-HCl pH 8.0, 150 mM NaCl, read-out: Kd (Mab PPAT)
[6] = Mab PPAT, 50 mM Tris-HCl pH 8.0, 150 mM NaCl, read-out: Kd

M. abscessus PPAT, sequence (B1MDL6 whole entry): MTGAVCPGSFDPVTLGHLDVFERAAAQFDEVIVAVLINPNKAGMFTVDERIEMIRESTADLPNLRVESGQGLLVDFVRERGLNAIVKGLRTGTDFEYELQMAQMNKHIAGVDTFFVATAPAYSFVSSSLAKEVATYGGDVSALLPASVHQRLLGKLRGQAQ
Mab PPAT, sequence (B1MDL6 whole entry, the tested form may be a part): as the sequence (B1MDL6 whole entry) above

Row | Structure (SMILES) | ΔΤm [4] | other results
1 | Nc1ncnc2c1ncn2[C@@H]1O[C@H](COP(=O)(O)OP(=O)(O)OP(=O)(O)O)[C@@H](O)[C@H]1O [ATP, Adenosine 5′ triphosphate, reference compound] |  | Kd ([1]; 50 mM Hepes pH 8.0, 150 mM NaCl, 5 mM MgCl2, Mab PPAT 200 uM, 3 mM ATP, read-out: Kd): 20.1 ± 3.3 µM
2 | CC(C)(COP(=O)(O)OP(=O)(O)OC[C@H]1O[C@@H](n2cnc3c(N)ncnc32)[C@H](O)[C@@H]1OP(=O)(O)O)[C@@H](O)C(=O)NCCC(=O)NCCS [Coenzyme A, reference compound] |  | Kd [1, 5]: 8.2 ± 1.1 µM
3 | O=C(O)c1cnn(-c2ccccc2)c1OCCCc1c[nH]c2ccccc12 [Compound 20] |  | Kd [2]: 15 ± 4 µM; Kd [1, 5]: 3.2 ± 0.8 µM; binding affinity on Mab PPAT relative to that on Mtb PPAT ([1]; Mab PPAT versus Mtb PPAT (Kd 15 ± 4 µM)): ~5 fold; affinity relative to affinity of Mab PPAT for the substrate ATP ([1]; Mab PPAT, compound versus ATP): ≈ 7 fold; cellular activity on whole-cell cultures [3]: low cellular activity
4 | Cc1c(C(=O)O)cnn1-c1ccccc1 [Fragment 1] | +6 °C | Kd [1, 6]: 540 ± 20 µM
5 | O=C(O)c1ccc2[nH]nc(Br)c2c1 [Fragment 2] | +12.5 °C | 
6 | Cc1cn(CCC(=O)O)c2ccccc12 [Fragment 3] | +0.5 °C | 
7 | O=C(O)C(O)c1cccc(Oc2ccccc2)c1 (stereo not shown) [Fragment 4] | +2.5 °C | 
8 | O=C(O)CCc1c[nH]c2ccccc12 [Fragment 5] | +3.5 °C | Kd [1, 6]: 3200 ± 20 µM
9 | O=C(O)c1ccccc1C(=O)c1ccc(Cl)c([N+](=O)[O-])c1 [Fragment 6] | +4.5 °C | 
10 | O=C(O)c1cc2cc(F)ccc2[nH]1 [Fragment 7] | +3.5 °C | 
11 | O=C(O)c1ccc2cc(F)ccc2c1 [Fragment 8] | +2.9 °C | 
12 | O=C(O)Cc1ccc2ccccc2c1 [Fragment 9] | +2.3 °C | 
13 | Cc1ccc(C(=O)O)c(C(=O)O)n1 [Fragment 10] | +2.0 °C | 
14 | O=C(O)c1cc2ccccc2cc1O [Fragment 11] | +2.0 °C | 
15 | O=C(O)C(O)Cc1c[nH]c2ccccc12 (stereo not shown) [Fragment 12] | +1.5 °C | 
16 | N#Cc1ccc(Cl)cc1N [Fragment 13] | +1.5 °C | 
17 | O=C(O)CCn1ccc2ccccc21 [Fragment 14] | +1 °C | 
18 | Cc1ccc2oc(=O)cc(O)c2c1 [Fragment 15] | +0.5 °C | 
19 | O=C(O)Cn1ccc2ccccc21 [Fragment 16] | -0.5 °C | 
